Activity calls are given as the source filed them.
Columns and labels:
[1] = biological target: Type-1 angiotensin II receptor (Homo sapiens, UniProt P30556); assay: AT1 receptor antagonists, dose response, selectivity assay for APJ receptor antagonist project, cell-based, uHTS hits (AID 463214); type: functional;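 note: antagonist potency against angiotensin II stimulated AT1 response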
Beta-galactosidase = Beta-galactosidase (Escherichia coli, UniProt Q8VNN2); assay: PubChem AID 485352; type: functional
INS1 = assay: protection from cytokine-induced mitochondrial depolarization, dose response, cell-based, INS-1E, JC-1 fluorescence ratio, dry powder (AID 488931); type: functional; conditions: Rattus norvegicus
CHO = assay: cytotoxicity in TLR9-MyD88 CHO cells, dose response, cytotoxicity control for TLR9-MyD88 binding inhibitor project, cell-based, luminescence (AID 588339); type: functional, hamster; conditions: Cricetulus griseus;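 note: CHO cells stably coexpressing TLR9 and MyD88 fusions from primary screen; compound exposure lasted 48 hours before viability readout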
[2] = biological target: T1, Heat shock factor protein 1 (Mus musculus, UniProt P38532); assay: inhibition of MG132-induced HSE-luciferase signal, confirmation, cell-based, NIH3T3, luminescence, dose retest (AID 2382); type: functional;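 note: NIH3T3 fibroblasts with HSF1-driven luciferase reporter stressed by proteasome inhibitor MG132; luminescence from HSF1-driven luciferase expression after 8 hours of MG132 stress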
T1 sequence (P38532 whole entry): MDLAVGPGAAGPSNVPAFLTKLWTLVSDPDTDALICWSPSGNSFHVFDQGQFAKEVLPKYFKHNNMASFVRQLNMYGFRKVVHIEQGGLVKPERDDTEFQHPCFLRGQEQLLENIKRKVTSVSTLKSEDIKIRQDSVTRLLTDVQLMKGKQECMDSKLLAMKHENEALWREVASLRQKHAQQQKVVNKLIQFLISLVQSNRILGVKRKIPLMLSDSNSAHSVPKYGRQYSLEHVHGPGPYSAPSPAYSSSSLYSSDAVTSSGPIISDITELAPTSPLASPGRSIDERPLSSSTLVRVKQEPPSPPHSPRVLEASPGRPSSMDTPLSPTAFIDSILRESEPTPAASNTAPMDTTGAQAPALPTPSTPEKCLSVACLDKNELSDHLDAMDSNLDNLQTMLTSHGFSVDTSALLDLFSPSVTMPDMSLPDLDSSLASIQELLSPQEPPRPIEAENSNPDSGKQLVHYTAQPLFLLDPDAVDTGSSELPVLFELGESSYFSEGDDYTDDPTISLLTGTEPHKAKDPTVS

[3] = biological target: FAD-linked sulfhydryl oxidase ALR (Homo sapiens, UniProt P55789); assay: inhibitors of human ALR sulfhydryl oxidase, dose response, biochemical, H2O2 detection, luminescence, cherry-pick (AID 493248)
[4] = biological target: T2, Microphthalmia-associated transcription factor (Homo sapiens, UniProt O75030); assay: TRPM1 promoter luciferase signal decrease, dose response, MITF inhibitor project, cell-based, SK-MEL-5, cherry-picked, set 3 (AID 493073); type: functional
T2 sequence (O75030 whole entry): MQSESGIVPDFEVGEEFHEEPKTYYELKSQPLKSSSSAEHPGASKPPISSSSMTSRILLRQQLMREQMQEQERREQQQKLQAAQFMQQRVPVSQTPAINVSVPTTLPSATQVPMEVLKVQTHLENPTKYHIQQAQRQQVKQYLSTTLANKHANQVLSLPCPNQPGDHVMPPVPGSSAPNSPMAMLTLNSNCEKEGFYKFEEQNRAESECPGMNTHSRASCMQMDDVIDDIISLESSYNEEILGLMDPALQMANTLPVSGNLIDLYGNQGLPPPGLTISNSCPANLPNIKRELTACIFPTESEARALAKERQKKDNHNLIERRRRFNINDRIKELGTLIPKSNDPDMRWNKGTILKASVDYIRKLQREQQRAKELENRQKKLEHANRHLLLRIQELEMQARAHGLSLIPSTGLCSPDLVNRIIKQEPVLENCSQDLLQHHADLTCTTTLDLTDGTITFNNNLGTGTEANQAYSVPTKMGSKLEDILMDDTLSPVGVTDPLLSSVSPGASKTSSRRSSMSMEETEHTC

A-375 = assay: A375 melanoma cell viability reduction, dose response, counter-screen for MITF modulator project, cherry-pick samples, set 2 (AID 540335); type: functional, cell-based; conditions: Homo sapiens
[5] = biological target: T3, Histone-lysine N-methyltransferase NSD2 (Homo sapiens, UniProt O96028); type: biochemical
T3 sequence (O96028 whole entry): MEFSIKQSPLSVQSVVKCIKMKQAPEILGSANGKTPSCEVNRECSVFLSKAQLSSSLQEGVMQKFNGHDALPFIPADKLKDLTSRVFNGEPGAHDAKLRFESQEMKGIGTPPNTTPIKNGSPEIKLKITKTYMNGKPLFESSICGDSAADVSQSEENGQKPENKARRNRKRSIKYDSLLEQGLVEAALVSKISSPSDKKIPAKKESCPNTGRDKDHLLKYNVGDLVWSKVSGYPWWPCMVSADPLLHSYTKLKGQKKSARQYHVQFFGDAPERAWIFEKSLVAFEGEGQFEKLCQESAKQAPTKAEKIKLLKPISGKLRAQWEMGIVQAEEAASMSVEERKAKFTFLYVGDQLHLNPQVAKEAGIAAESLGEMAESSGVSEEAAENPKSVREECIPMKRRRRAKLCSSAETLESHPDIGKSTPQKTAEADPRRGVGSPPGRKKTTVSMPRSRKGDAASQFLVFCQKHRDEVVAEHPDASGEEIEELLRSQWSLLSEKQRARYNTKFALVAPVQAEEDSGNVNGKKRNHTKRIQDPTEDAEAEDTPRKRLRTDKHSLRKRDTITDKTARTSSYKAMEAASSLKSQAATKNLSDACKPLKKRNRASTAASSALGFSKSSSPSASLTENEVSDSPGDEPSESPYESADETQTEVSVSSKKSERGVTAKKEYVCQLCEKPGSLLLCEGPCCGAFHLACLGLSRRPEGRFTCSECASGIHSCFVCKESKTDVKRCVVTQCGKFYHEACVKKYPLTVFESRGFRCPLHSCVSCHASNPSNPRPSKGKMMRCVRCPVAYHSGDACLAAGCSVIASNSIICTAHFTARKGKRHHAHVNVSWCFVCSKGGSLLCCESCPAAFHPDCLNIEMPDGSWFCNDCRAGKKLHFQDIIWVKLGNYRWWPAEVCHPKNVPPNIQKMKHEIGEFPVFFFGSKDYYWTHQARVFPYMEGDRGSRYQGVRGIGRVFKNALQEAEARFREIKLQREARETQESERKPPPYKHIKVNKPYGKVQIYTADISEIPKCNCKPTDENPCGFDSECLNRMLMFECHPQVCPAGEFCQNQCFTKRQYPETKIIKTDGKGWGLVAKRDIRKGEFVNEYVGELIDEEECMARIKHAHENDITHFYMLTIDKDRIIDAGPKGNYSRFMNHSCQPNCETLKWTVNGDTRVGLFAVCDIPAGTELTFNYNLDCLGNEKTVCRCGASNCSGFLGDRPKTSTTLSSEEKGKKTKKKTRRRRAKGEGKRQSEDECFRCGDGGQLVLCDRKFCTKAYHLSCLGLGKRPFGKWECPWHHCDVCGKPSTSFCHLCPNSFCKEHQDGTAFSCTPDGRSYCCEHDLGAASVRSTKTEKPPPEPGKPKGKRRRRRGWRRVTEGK

Type-1 angiotensin II receptor, sequence (P30556 whole entry): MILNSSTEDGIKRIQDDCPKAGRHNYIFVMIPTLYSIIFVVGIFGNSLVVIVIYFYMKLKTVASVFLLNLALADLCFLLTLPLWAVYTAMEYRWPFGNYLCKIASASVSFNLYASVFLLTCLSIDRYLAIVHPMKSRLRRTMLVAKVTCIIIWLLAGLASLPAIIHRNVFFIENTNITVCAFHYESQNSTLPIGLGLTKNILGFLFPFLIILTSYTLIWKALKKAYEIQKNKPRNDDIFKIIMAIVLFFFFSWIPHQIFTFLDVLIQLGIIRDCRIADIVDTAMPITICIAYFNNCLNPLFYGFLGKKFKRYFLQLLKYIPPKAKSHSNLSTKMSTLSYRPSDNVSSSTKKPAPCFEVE
Beta-galactosidase, sequence (Q8VNN2 whole entry): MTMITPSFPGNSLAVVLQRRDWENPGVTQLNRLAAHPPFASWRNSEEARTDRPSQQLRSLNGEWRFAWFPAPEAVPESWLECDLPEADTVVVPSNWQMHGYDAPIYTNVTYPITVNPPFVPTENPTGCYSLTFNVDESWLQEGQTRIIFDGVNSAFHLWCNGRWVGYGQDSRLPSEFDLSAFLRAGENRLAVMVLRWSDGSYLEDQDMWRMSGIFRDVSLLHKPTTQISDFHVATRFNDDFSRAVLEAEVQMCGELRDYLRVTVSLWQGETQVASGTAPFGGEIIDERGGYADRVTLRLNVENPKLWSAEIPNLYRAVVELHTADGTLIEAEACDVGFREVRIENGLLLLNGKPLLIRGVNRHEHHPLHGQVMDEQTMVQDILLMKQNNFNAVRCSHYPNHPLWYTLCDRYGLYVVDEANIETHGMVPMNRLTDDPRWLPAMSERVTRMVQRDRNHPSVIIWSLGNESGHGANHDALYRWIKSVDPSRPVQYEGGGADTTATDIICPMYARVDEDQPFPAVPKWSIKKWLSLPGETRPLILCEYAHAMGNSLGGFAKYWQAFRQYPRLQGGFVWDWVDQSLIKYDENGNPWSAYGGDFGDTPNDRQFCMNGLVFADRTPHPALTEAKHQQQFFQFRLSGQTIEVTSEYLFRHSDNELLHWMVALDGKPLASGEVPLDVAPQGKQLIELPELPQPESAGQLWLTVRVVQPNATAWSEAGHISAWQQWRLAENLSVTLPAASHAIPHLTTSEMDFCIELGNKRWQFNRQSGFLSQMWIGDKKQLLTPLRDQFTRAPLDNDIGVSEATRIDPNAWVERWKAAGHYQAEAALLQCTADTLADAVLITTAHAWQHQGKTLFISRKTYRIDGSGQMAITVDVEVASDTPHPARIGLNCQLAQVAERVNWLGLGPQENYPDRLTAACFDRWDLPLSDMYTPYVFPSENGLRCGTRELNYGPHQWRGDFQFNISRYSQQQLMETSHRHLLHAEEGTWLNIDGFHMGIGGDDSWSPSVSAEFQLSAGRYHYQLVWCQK
FAD-linked sulfhydryl oxidase ALR, sequence (P55789 whole entry): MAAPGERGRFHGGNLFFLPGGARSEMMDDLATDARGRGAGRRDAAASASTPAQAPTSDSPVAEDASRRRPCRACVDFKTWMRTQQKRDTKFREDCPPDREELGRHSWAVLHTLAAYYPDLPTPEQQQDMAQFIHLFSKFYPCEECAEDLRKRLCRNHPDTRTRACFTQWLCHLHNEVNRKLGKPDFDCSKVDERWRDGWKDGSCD

Q: What does the source list for `Cc1nnsc1C(=O)NNc1ccc(C(C)(C)C)cc1`?
A: IC50 [1]: 2.56 µM (active); EC50 (Beta-galactosidase): > 40 µM (inactive)

Q: Which AC50 (INS1) does the source give for `COc1ccc(S(=O)(=O)N(C)C[C@@H]2Oc3c(NC(=O)C4CCCCC4)cccc3C(=O)N([C@@H](C)CO)C[C@H]2C)cc1` here?
A: The AC50 was 137 µM (active).

Q: What does the source list for `O=S(=O)(N/N=C\c1ccc(-c2ccccc2Cl)o1)c1ccccc1`?
A: IC50 [1]: > 40 µM (not active); EC50 (Beta-galactosidase): > 40 µM (inactive)

Q: `CC(C)OC(=O)c1sc2nc(-c3ccccc3)ccc2c1N` was tested. Which IC50 (CHO) did it give?
A: The IC50 was > 49.8 µM (inactive).

Q: And the EC50 [2]?
A: The EC50 was < 0.16 µM (active).

Q: How did the AC50 [3] turn out when `Cc1cc(C)cc(N2C(=O)NC(=O)/C(=C\C=C\c3ccco3)C2=O)c1` was run?
A: Its AC50 is 0.501 µM (active).

Q: And the AC50 [4]?
A: The AC50 was 4.88 µM (active).

Q: And the AC50 (A-375)?
A: Its AC50 is 26.7 µM (active).

Q: And the AC50 [5]?
A: The AC50 was 18.1 µM (active).

— ChEMBL document CHEMBL1201862, “PubChem BioAssay data set” (2004)
